Laboratory results: patent US10570122B2, “Compounds with anti-tumoral activity” (AB Science, priority 2015, dated 2020)

Experiments:
RL = test: CellTiter-Blue cell-based survival/proliferation assay, RL; details: Homo sapiens, Lymphoma cell line RL, 48 h, read-out: Anti-tumoral activity (measured IC50) RL
Description: Cell-Based Proliferation Screening of Compounds
CellTiter-Blue cell-based survival/proliferation assay (Promega G8080) was performed on tumor cell lines. A total of 1·10^4 cells/well/50 μl were seeded in a 96-wells plate. Treatment was initiated by addition of a 2× drug solution of 1/10 serial dilutions ranging from 0 to 10 μM. Cells were grown for 48 h at 37° C. and then incubated with 10 μl/well of Promega CellTiter-Bleue reagent for 4 h at 37° C. The amount of resorufin dye formed was quantified by its fluorescence emission at 590 nm using a scanning multiwell spectrophotometer (OPTIMA, BMG labtech, France). A blank well without cells was used as a background control for the spectrophotometer.

MESSA = test: CellTiter-Blue cell-based survival/proliferation assay, MESSA; details: Homo sapiens, MES-SA; MESSA ovary tumor cell line, 48 h
In short: (§1)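 Compounds, diluted tenfold serially over 0–10 μM, are applied to 1·10^4 seeded cells per well for 48 h at 37 °C. Resorufin formed during a further 4 h with CellTiter-Blue is detected by fluorescence emission at 590 nm.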

HCT116 = test: CellTiter-Blue cell-based survival/proliferation assay, HCT116; details: Homo sapiens, HCT-116; HCT116 colorectal tumor cell line, 48 h
In short: as §1

AGS = test: CellTiter-Blue cell-based survival/proliferation assay, AGS; details: Homo sapiens; AGS stomach tumor cell line, 48 h
In short: as §1

DLD1 = test: CellTiter-Blue cell-based survival/proliferation assay, DLD1; details: Homo sapiens, DLD-1; DLD_1 colorectal tumor cell line, 48 h
In short: as §1

MDAMB231 = test: CellTiter-Blue cell-based survival/proliferation assay, MDAMB231; details: Homo sapiens, MDA-MB-231; MDAMB231 breast tumor cell line, 48 h
In short: as §1

KARPAS299 = test: CellTiter-Blue cell-based survival/proliferation assay, KARPAS299; details: Homo sapiens, KARPAS-299, Lymphoma cell line KARPAS299, 48 h, read-out: Anti-tumoral activity (measured IC50) KARPAS299
In short: as §1

HGC27 = test: CellTiter-Blue cell-based survival/proliferation assay, HGC27; details: Homo sapiens, HGC-27; HGC27 stomach tumor cell line, 48 h
In short: as §1

H1299 = test: CellTiter-Blue cell-based survival/proliferation assay, H1299; details: Homo sapiens, NCI-H1299; H1299 lung tumor cell line, 48 h
In short: as §1

OPM2 = test: CellTiter-Blue cell-based survival/proliferation assay, OPM2; details: Homo sapiens, OPM-2, Myeloma cell line OPM2, 48 h, read-out: Anti-tumoral activity (measured IC50) OPM2
In short: as §1

SW579 = test: CellTiter-Blue cell-based survival/proliferation assay, SW579; details: Homo sapiens; SW579 head & neck tumor cell line, 48 h
In short: as §1

TOV112D = test: CellTiter-Blue cell-based survival/proliferation assay, TOV112D; details: Homo sapiens; TOV112D ovary tumor cell line, 48 h
In short: as §1

[1] = tested on: panel of about 34 human tumor cell lines; test: Cell-based proliferation screening on panel of tumor cell lines; details: solid tumor cell line, cell line unknown, 48 h, read-out: IC50, solid tumor cell line of column 6 (last section of Table 3)
In short: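 CellTiter-Blue survival assay with 1·10^4 cells/well, each line treated 48 h at 37° C with 1/10 serial dilutions from 0 to 10 μM. Resorufin formed during a 4 h reagent incubation is read by fluorescence at 590 nm. A cell-free blank serves as background.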

BT20 = test: CellTiter-Blue cell-based survival/proliferation assay, BT20; details: Homo sapiens, BT-20; BT20 breast tumor cell line, 48 h
In short: as §1

DU145 = test: CellTiter-Blue cell-based survival/proliferation assay, DU145; details: Homo sapiens, DU-145; DU145 prostate tumor cell line, 48 h
In short: as §1

PANC1 = test: CellTiter-Blue cell-based survival/proliferation assay, PANC1; details: Homo sapiens, PANC-1; PANC_1 pancreas tumor cell line, 48 h
In short: as §1

PLCPRF5 = test: CellTiter-Blue cell-based survival/proliferation assay, PLCPRF5; details: Homo sapiens, PLC-PRF-5; PLC_PRF5 liver tumor cell line, 48 h
In short: as §1

CLS354 = test: CellTiter-Blue cell-based survival/proliferation assay, CLS354; details: Homo sapiens, CLS-354; CLS354_4 head & neck tumor cell line, 48 h
In short: as §1

HEP2 = test: CellTiter-Blue cell-based survival/proliferation assay, HEP2; details: Homo sapiens, HEp-2; HEP2 head & neck tumor cell line, 48 h
In short: as §1

A549 = test: CellTiter-Blue cell-based survival/proliferation assay, A549; details: Homo sapiens; A549 lung tumor cell line, 48 h
In short: as §1

PC3 = test: CellTiter-Blue cell-based survival/proliferation assay, PC3; details: Homo sapiens, PC-3; PC3 prostate tumor cell line, 48 h
In short: as §1

HL60 = test: CellTiter-Blue cell-based survival/proliferation assay, HL60; details: Homo sapiens, HL-60, Leukemia cell line HL60, 48 h, read-out: Anti-tumoral activity (measured IC50) HL60
In short: as §1

ACHN = test: CellTiter-Blue cell-based survival/proliferation assay, ACHN; details: Homo sapiens; ACHN kidney tumor cell line, 48 h
In short: as §1

HEPG2 = test: CellTiter-Blue cell-based survival/proliferation assay, HEPG2; details: Homo sapiens; HEPG2 liver tumor cell line, 48 h
In short: as §1

CALU6 = test: CellTiter-Blue cell-based survival/proliferation assay, CALU6; details: Homo sapiens, Calu-6; CALU6 lung tumor cell line, 48 h
In short: as §1

BXPC3 = test: CellTiter-Blue cell-based survival/proliferation assay, BXPC3; details: Homo sapiens, BXPC-3; BXPC3 pancreas tumor cell line, 48 h
In short: as §1

A498 = test: CellTiter-Blue cell-based survival/proliferation assay, A498; details: Homo sapiens; A498 kidney tumor cell line, 48 h
In short: as §1

HUT78 = test: CellTiter-Blue cell-based survival/proliferation assay, HUT78; details: Homo sapiens, Lymphoma cell line HUT78, 48 h, read-out: Anti-tumoral activity (measured IC50) HUT78
In short: as §1

Measured: IC50

CCOCc1ccc(C)c(Nc2ncc(-c3ccc(-n4ccnc4)cc3)o2)c1 [Example 037, (5-Ethoxymethyl-2-methyl-phenyl)-[5-(4-imidazol-1-yl-phenyl)-oxazol-2-yl]-amine]
> 1000 nM: all assays above
